This note sets out measurements from patent US6294562A, “Salts of ethyl 3-(2-(4-(4-amino-imino-methyl)phenyl)-4-methyl-2,5-dioxo-imidazolidin-1-yl )acetylamino)-3-phenylpropionate” (Hoechst Aktiengesellschaft, priority 1996, dated 2001).

Molecules are shown by their SMILES.

The test system of data set [1] is ADP-induced ex vivo platelet aggregation. Description: Ex vivo platelet aggregation inhibition in dogs, ADP-induced. The arrangement: species or system dog. To be noted: for Inhibition of aggregation: ADP. Here is the method:
(§1) Dogs of either sex (mixed breed of Labrador/Harrier, body weight 21-28 kg) were fasted overnight. The test compounds were administered orally in gelatine capsules or intravenously. Before administration of the test compounds and several times during 24 hours thereafter, 20 ml of blood were withdrawn from the cephalic vein into acid citrate dextrose (9+1volumes). Platelet rich plasma (PRP) was obtained by centrifugation. Platelet aggregation was measured in PRP after addition of either ADP (3-30 μmol/l) or collagen (0.3-10 μg/ml) plus epinephrine (10 μM) at 37° C. in an aggregometer (BioData). Percent of maximal aggregation before and after drug administration was compared. The percent inhibition of aggregation at the lowest concentration of the agonist which induced irreversible maximal aggregation is given. In addition, the cutaneous bleeding time was measured at the shaved inner forearm using the Simplate® 1 device at the times of blood collection. Percent prolongation of bleeding time after drug administration as compared to the predrug value is calculated.
When ethyl (S)-3-(2-( (S)-4-(4-(amino-imino-methyl) phenyl)-4-methyl-2,5-dioxoimidazolidin-1-yl)acetylamino)-3-phenylpropionate hydrogen maleate was examined the following results were obtained. Given is the percent inhibition of platelet aggregation 1 h, 4 h, 8 h and 24 h after administration of the test substance. The dose is given in mg per kg body weight. n is the number of dogs tested.

A short description of data set [2]: Cutaneous bleeding time in dogs (Simplate 1 device). The format is in vivo, dog. To be noted: for maximal prolongation of bleeding time: p<0.05. Here is the method: as §1

Consider `CCOC(=O)C[C@H](NC(=O)CN1C(=O)N[C@@](C)(c2ccc(C(=N)N)cc2)C1=O)c1ccccc1.O=C(O)/C=C\C(=O)O` [Ethyl (S)-3-(2-((S)-4-(4-(amino-imino-methyl)phenyl)-4-methyl-2,5-dioxo-imidazolidin-1-yl)acetylamino)-3-phenylpropionate hydrogen maleate], for which the Inhibition of aggregation in data set [1] (0.5 mg/kg intravenously, n=6, after 1 h) is reported as 93%; in data set [1] (0.5 mg/kg intravenously, n=6, after 4 h), 88%; in data set [1] (0.5 mg/kg intravenously, n=6, after 8 h), 59%; in data set [1] (0.5 mg/kg intravenously, n=6, after 24 h), 16%; in data set [1] (0.5 mg/kg orally, n=6, after 1 h), 46%; in data set [1] (0.5 mg/kg orally, n=6, after 4 h), 83%. The Inhibition of aggregation was 33% in data set [1] (0.5 mg/kg orally, n=6, after 8 h); 18% in data set [1] (0.5 mg/kg orally, n=6, after 24 h); 76% in data set [1] (1 mg/kg orally, n=6, after 1 h); 97% in data set [1] (1 mg/kg orally, n=6, after 4 h); 86% in data set [1] (1 mg/kg orally, n=6, after 8 h); 70% in data set [1] (1 mg/kg orally, n=6, after 24 h). For the same compound, the Inhibition of aggregation in data set [1] (2 mg/kg orally, n=8, after 1 h) was found to be 64%; in data set [1] (2 mg/kg orally, n=8, after 4 h) it was 86%; in data set [1] (2 mg/kg orally, n=8, after 8 h) it was 78%; in data set [1] (2 mg/kg orally, n=8, after 24 h), 49%. Moreover, in data set [1] (in words, ADP- and collagen-induced), the “efficacy as inhibitor of platelet aggregation” value was “pronounced efficacy”. Besides, the “maximal prolongation of bleeding time” value in data set [2] (0.5 mg/kg intravenous, at 4 hours) was 68%; in data set [2] (2 mg/kg oral, at 2 hours), 122%. The bleeding times result in data set [2] (at the lower oral doses (0.5 and 1 mg/kg)) was “not significantly changed”.
